The values that follow come from patent US7060722B2, “Proline derivatives and use thereof as drugs” (Mitsubishi Pharma Corporation, priority 2000, dated 2006).

Where a name gives a salt, the structure may show the parent alone.

One assay has as its target T1, Human plasma DPP-IV (Homo sapiens, UniProt P27487).
T1 construct: from tissue; host or cells: human plasma
As to the kind of experiment: Plasma DPP-IV inhibitory activity, fluorescence assay (human plasma). It counts as biochemical. The following applies: human plasma (10-fold diluted), Gly-Pro-MCA substrate, room temperature 60 min. On the procedure: (§1) The plasma DPP-IV inhibitory activity of human and rat was measured by the fluorescence assay method.
(§2) The inhibitory rate relative to the solvent addition group was calculated and IC50 values were determined by logistic analysis.

The next assay addresses T2, Rat plasma DPP-IV (Rattus norvegicus, UniProt P14740).
T2 construct: from tissue; host or cells: rat plasma
As to the kind of experiment: Plasma DPP-IV inhibitory activity, fluorescence assay (rat plasma). It counts as biochemical. The note with it: rat plasma (10-fold diluted), Gly-Pro-MCA substrate, room temperature 60 min. The protocol:
as §1, §2

T2 sequence (P14740 37-767 limits assumed): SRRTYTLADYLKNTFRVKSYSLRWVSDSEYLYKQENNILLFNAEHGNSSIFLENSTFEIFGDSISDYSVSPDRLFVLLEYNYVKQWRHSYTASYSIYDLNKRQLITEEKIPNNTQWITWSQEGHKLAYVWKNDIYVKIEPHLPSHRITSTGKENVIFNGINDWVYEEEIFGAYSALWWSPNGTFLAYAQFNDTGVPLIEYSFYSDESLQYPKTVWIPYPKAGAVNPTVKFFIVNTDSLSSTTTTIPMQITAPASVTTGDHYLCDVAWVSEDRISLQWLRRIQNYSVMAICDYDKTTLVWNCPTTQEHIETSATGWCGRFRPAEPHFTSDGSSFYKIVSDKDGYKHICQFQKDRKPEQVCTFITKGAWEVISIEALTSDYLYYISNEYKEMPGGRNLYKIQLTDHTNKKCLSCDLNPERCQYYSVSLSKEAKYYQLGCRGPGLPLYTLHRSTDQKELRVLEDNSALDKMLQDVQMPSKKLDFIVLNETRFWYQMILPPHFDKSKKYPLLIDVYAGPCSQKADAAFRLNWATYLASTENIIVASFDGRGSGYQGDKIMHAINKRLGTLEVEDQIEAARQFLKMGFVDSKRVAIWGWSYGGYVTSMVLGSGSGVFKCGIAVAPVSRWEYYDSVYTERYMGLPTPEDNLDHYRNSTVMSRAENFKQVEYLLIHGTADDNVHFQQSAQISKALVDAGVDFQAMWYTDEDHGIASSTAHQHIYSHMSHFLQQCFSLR
T1 sequence (P27487 39-766 limits assumed): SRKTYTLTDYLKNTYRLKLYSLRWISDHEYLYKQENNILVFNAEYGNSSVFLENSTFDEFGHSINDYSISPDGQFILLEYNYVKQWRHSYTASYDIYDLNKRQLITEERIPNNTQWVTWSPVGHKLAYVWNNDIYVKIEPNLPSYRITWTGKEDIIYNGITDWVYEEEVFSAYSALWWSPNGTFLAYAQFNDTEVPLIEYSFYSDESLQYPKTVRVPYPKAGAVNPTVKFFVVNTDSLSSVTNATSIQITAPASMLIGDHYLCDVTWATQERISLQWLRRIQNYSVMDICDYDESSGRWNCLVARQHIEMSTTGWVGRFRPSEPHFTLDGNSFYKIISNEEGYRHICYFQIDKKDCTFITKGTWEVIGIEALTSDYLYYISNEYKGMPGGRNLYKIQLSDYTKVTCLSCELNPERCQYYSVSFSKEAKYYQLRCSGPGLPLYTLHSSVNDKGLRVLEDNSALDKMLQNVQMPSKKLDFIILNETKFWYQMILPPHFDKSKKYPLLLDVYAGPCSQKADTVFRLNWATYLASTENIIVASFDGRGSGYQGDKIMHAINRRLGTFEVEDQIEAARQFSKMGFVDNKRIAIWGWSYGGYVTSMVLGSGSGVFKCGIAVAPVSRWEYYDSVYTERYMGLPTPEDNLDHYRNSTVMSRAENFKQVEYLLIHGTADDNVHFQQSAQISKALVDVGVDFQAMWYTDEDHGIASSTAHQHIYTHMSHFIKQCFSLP

Regarding `N#C[C@@H]1CCCN1C(=O)[C@@H]1C[C@H](Nc2ccc(C(F)(F)F)cn2)CN1` [Example 20, (S)-2-cyano-1-[(2S,4S)-4-(5-trifluoromethyl-2-pyridyl)amino-2-pyrrolidinylcarbonyl]pyrrolidine 2 trifluoroacetate], the IC50 (as a rule, the concentration at which inhibition is half-maximal) against Human plasma DPP-IV stood at 0.54 nM; against Rat plasma DPP-IV it was 0.41 nM.

Regarding `N#C[C@@H]1CCCN1C(=O)[C@@H]1C[C@H](Nc2ncccn2)CN1` [Example 24, (S)-2-cyano-1-[(2S,4S)-4-(2-pyrimidinyl)amino-2-pyrrolidinylcarbonyl]pyrrolidine hydrochloride], the IC50 turned out to be 0.51 nM on Human plasma DPP-IV and 0.64 nM on Rat plasma DPP-IV.

`N#C[C@@H]1CCCN1C(=O)[C@@H]1C[C@H](NCc2ccc([N+](=O)[O-])cc2)CN1` [Example 29, (S)-2-cyano-1-[(2S,4S)-4-(4-nitrophenylmethyl)amino-2-pyrrolidinylcarbonyl]pyrrolidine dihydrochloride]: the results for the IC50 on Human plasma DPP-IV and at Rat plasma DPP-IV were 0.3 nM and 0.22 nM, respectively.

Consider `CCOC(=O)CN(CC(=O)OCC)[C@@H]1CN[C@H](C(=O)N2CCC[C@H]2C#N)C1` [Example 39, (S)-2-cyano-1-{(2S,4S)-4-[N,N-bis(ethoxycarbonylmethyl)amino]-2-pyrrolidinylcarbonyl}pyrrolidine dihydrochloride], for which the IC50 against Human plasma DPP-IV was determined as 1.1 nM; on Rat plasma DPP-IV, 0.55 nM.

Turning to `CN(Cc1cccc(C#N)c1)[C@@H]1CN[C@H](C(=O)N2CCSC2)C1` [Example 99, 3-{(2S,4S)-4-[N-(3-cyanophenylmethyl)-N-methylamino]-2-pyrrolidinylcarbonyl}-1,3-thiazolidine dihydrochloride], the figures for the IC50 on Human plasma DPP-IV and at Rat plasma DPP-IV were 6.8 nM and 9.4 nM, respectively.

Regarding `O=C([C@@H]1C[C@H](N2CCC(c3cc4ccccc4s3)CC2)CN1)N1CCSC1` [Example 143, 3-{(2S,4S)-4-[4-(2-benzo[b]thienyl)piperidino]-2-pyrrolidinylcarbonyl}-1,3-thiazolidine dihydrochloride], the figures for the IC50 on Human plasma DPP-IV and against Rat plasma DPP-IV were 1.5 nM and 2.1 nM, respectively.

In the case of `O=C([C@@H]1C[C@H](N2CCN(c3ccc([N+](=O)[O-])cn3)CC2)CN1)N1CCCC1` [Example 186, 1-{(2S,4S)-4-[4-(5-nitro-2-pyridyl)-1-piperazinyl]-2-pyrrolidinylcarbonyl}pyrrolidine trihydrochloride], the concentration for half-maximal inhibition (IC50) turned out to be 3.7 nM at Human plasma DPP-IV and 4.2 nM on Rat plasma DPP-IV.

Regarding `O=C(O)c1ccc(N2CCN([C@@H]3CN[C@H](C(=O)N4CCSC4)C3)CC2)nc1` [Example 212, 3-{(2S,4S)-4-[4-(5-carboxy-2-pyridyl)-1-piperazinyl]-2-pyrrolidinylcarbonyl}-1,3-thiazolidine trihydrochloride], the concentration for half-maximal inhibition (IC50) against Human plasma DPP-IV was 0.45 nM; at Rat plasma DPP-IV, 0.75 nM.

Regarding `O=C([C@@H]1C[C@H](N2CCN(c3nc4ccc(C(F)(F)F)cc4s3)CC2)CN1)N1CCSC1` [Example 242, 3-{(2S,4S)-4-[4-(6-trofluoromethyl-2-benzothiazolyl)-1-piperazinyl]-2-pyrrolidinylcarbonyl}-1,3-thiazolidine dihydrochloride], the IC50 came out at 0.33 nM on Human plasma DPP-IV and 0.34 nM against Rat plasma DPP-IV.

For `O=C([C@@H]1C[C@H](N2CCC(c3nn(CCN4CCOCC4)c(=O)o3)CC2)CN1)N1CCSC1` [Example 296, 3-((2S,4S)-4-{4-[4-(2-morpholinoethyl)-5-oxo-4,5-dihydro-1,3,4-oxadiazol-2-yl]piperidino}-2-pyrrolidinylcarbonyl)-1,3-thiazolidine trihydrochloride], the IC50 on Human plasma DPP-IV is 1.1 nM; against Rat plasma DPP-IV it was 1.9 nM.

As for `O=C([C@@H]1C[C@H](N2CCC(c3nc4ccc(F)cc4[nH]3)CC2)CN1)N1CCSC1` [Example 303, 3-{(2S,4S)-4-[4-(5-fluoro-2-benzimidazolyl)piperidino]-2-pyrrolidinylcarbonyl}-1,3-thiazolidine trihydrochloride], the results for the IC50 on Human plasma DPP-IV and at Rat plasma DPP-IV were 0.61 nM and 1.1 nM, respectively.
